From patent US9523100B2, “Pesticidal compositions and related methods” (DOW AGROSCIENCES LLC, priority 2013, dated 2016)
Read-outs that look alike come from different tables or passages of the source.

What was measured:
[1] = tested on: Green Peach Aphid (GPA) (Myzus persicae) (MYZUPE); experiment: Bioassay for Green Peach Aphid (GPA), foliar spray on cabbage seedlings; type: in vivo; settings: 72 h, read-out: GPA 200 ppm, % Control (or Mortality) rating
In short: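 Cabbage seedlings infested with 20-50 GPA (wingless adults and nymphs) one day before spraying to runoff with 200 ppm compound; four pots per treatment. Live aphids counted after three days at ~25° C; percent control by Abbott's correction against solvent-sprayed plants.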

[2] = tested on: Sweetpotato Whitefly-Crawler (WF) (Bemisia tabaci) (BEMITA); experiment: Insecticidal test for Sweetpotato Whitefly-Crawler (WF) in foliar spray assay on cotton plants; type: in vivo; settings: 216 h, read-out: WF 200 ppm, % Control (or Mortality) rating
In short: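 Cotton plants carrying 200–400 whitefly eggs sprayed to run-off on both leaf surfaces at 200 ppm (acetone/0.025% Tween 20), four plants per treatment. After 9 days at about 25 °C, live 3rd–4th instar nymphs counted; Abbott-corrected percent control versus solvent check.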

[3] = 200 ppm foliar spray on cabbage seedlings, graded after three days, Abbott corrected % control
[4] = 200 ppm foliar spray on cotton plants, graded after 9 days, Abbott corrected % control

| SMILES | mortality at 200 ppm [1, 3] [%] | mortality at 200 ppm [2, 4] [%] | mortality at 200 ppm ([1]; foliar) [%] | mortality at 200 ppm ([2]; foliar) [%] |
| --- | --- | --- | --- | --- |
| CCN(C(=O)C1CCCN(C(=O)CCC#N)C1)c1cn(-c2cccnc2)nc1Cl (stereo not shown) [FA44, N-(3-chloro-1-(pyridin-3-yl)-1H-pyrazol-4-yl)-1-(3-cyanopropanoyl)-N-ethylpiperidine-3-carboxamide] | 80 to 100 | 80 to 100 |  |  |
| CCN(C(=O)C(C)N(C)C(=O)N(C)C)c1cn(-c2cccnc2)nc1Cl (stereo not shown) [Compound F114, N-(3-Chloro-1-(pyridin-3-yl)-1H-pyrazol-4-yl)-N-ethyl-2-(1,3,3-trimethylureido)propanamide] | 80 to 100 | 80 to 100 |  |  |
| CCN(C(=O)C1CCN(C(=O)CC(F)(F)F)C1)c1cn(-c2cccnc2)nc1Cl (stereo not shown) [Compound P21, N-(3-Chloro-1-(pyridin-3-yl)-1H-pyrazol-4-yl)-N-ethyl-1-(3,3,3-trifluoropropanoyl)pyrrolidine-3-carboxamide] | 80 to 100 | 0 to 80 |  |  |
| CCN(C(=O)C1CCN(C(=O)OC(C)(C)C)C1)c1cn(-c2cccnc2)nc1Cl (stereo not shown) [Compound F11] | 0 to 80 | 80 to 100 |  |  |
| CC(C)(C)[Si](C)(C)N1CC(CCCC(=O)O)C1=O (stereo not shown) [Compound C5, 4-(1-(tert-Butyldimethylsilyl)-2-oxoazetidin-3-yl)butanoic acid] |  |  | 0 to 80 | < 0 |
| CCN(C(=O)C1CCN(C(=O)c2cccnc2)C1)c1cn(-c2cccnc2)nc1Cl (stereo not shown) [FA12, N-(3-Chloro-1-(pyridin-3-yl)-1H-pyrazol-4-yl)-N-ethyl-1-nicotinoylpyrrolidine-3-carboxamide] | 0 to 80 | 0 to 80 |  |  |
| CCN(C(=O)CC/C(=N/OCC1CC(F)(F)C1)c1cccs1)c1cn(-c2cccnc2)nc1Cl [FA31, (Z)-N-(3-Chloro-1-(pyridin-3-yl)-1H-pyrazol-4-yl)-4-(((3,3-difluorocyclobutyl)methoxy)imino)-N-ethyl-4-(thiophen-2-yl)butanamide] | < 0 | 0 to 80 |  |  |
| CCN(C(=O)CN1CCCCCC1=O)c1cn(-c2cccnc2)nc1Cl [Compound F123, N-(3-Chloro-1-(pyridin-3-yl)-1H-pyrazol-4-yl)-N-ethyl-2-(2-oxoazepan-1-yl)acetamide] | 0 to 80 | 80 to 100 |  |  |
| CCN(C(=O)CCC(=O)N1CCCC1)c1cn(-c2cccnc2)nc1Cl [Compound F106, N-(3-Chloro-1-(pyridin-3-yl)-1H-pyrazol-4-yl)-N-ethyl-4-oxo-4-(pyrrolidin-1-yl)butanamide] | 0 to 80 | 0 to 80 |  |  |
| CCN(C(=O)CC1CN(C)C1=O)c1cn(-c2cccnc2)nc1Cl (stereo not shown) [Compound F32, N-(3-chloro-1-(pyridin-3-yl)-1H-pyrazol-4-yl)-N-ethyl-2-(1-methyl-2-oxoazetidin-3-yl)acetamide] | 80 to 100 | 80 to 100 |  |  |
| CCN(C(=O)CC1CN(Cc2ccc(C(F)(F)F)cc2)C1=O)c1cn(-c2cccnc2)nc1Cl (stereo not shown) [Compound F14] | 0 to 80 | 80 to 100 |  |  |
| CCN(C(=O)CCCC1CNC1=O)c1cn(-c2cccnc2)nc1Cl (stereo not shown) [Compound F58] | 80 to 100 | 80 to 100 |  |  |
| CCN(C(=O)C(C)OC(=O)N(C)C)c1cn(-c2cccnc2)nc1Cl (stereo not shown) [Compound F93, 1-((3-chloro-1-(pyridin-3-yl)-1H-pyrazol-4-yl)(ethyl)amino)-1-oxopropan-2-yl dimethylcarbamate] |  |  | 80 to 100 | 80 to 100 |
| CN(C(=O)CCN1CCCC1=O)c1cn(-c2cccnc2)nc1Cl [Compound F107, N-(3-Chloro-1-(pyridin-3-yl)-1H-pyrazol-4-yl)-N-methyl-3-(2-oxopyrrolidin-1-yl)propanamide] | 80 to 100 | 80 to 100 |  |  |
| CCN(C(=O)CC1CCN(CCC2CC2(F)F)C1=O)c1cn(-c2cccnc2)nc1Cl (stereo not shown) [FA64, N-(3-Chloro-1-(pyridin-3-yl)-1H-pyrazol-4-yl)-2-(1-(2-(2,2-difluorocyclopropyl)ethyl)-2-oxopyrrolidin-3-yl)-N-ethylacetamide] | 80 to 100 | 80 to 100 |  |  |
| CCN(C(=O)CC/C(C)=N/OCc1ccc(C(F)(F)F)nc1)c1cn(-c2cccnc2)nc1Cl [FA22, (E/Z)-N-(3-Chloro-1-(pyridin-3-yl)-1H-pyrazol-4-yl)-N-ethyl-4-(((6-(trifluoromethyl)pyridin-3-yl)methoxy)imino)pentanamide] | 0 to 80 | 80 to 100 |  |  |

| SMILES | mortality at 200 ppm [1, 3] [%] | mortality at 200 ppm [2, 4] [%] | mortality at 200 ppm ([1]; foliar) [%] | mortality at 200 ppm ([2]; foliar) [%] |
| --- | --- | --- | --- | --- |
| CCN1CC(CCCC(=O)N(CC)c2cn(-c3cccnc3)nc2Cl)C1=O (stereo not shown) [Compound F81, N-(3-Chloro-1-(pyridin-3-yl)-1H-pyrazol-4-yl)-N-ethyl-4-(1-ethyl-2-oxoazetidin-3-yl)butanamide] | 80 to 100 | 80 to 100 |  |  |
| CCN(C(=O)CCN(C)C(C)=O)c1cn(-c2cccnc2)nc1Cl [Compound F64, N-(3-chloro-1-(pyridin-3-yl)-1H-pyrazol-4-yl)-N-ethyl-3-(N-methylacetamido) propanamide] | 80 to 100 | 80 to 100 |  |  |
| CN(C(=O)[C@@H]1C=C[C@H](NC(=O)OC(C)(C)C)C1)c1cn(-c2cccnc2)nc1Cl [Compound F109, tert-butyl ((1R,4S)-4-((3-chloro-1-(pyridin-3-yl)-1H-pyrazol-4-yl)(methyl)carbamoyl)cyclopent-2-en-1-yl)carbamate] | 0 to 80 | 80 to 100 |  |  |
| CC(CCC(=O)N(C)c1cn(-c2cccnc2)nc1Cl)=NOC(C)C (mixture of isomers) [Compound F130, (E/Z)-N-(3-Chloro-1-(pyridin-3-yl)-1H-pyrazol-4-yl)-4-(isopropoxyimino)-N-methylpentanamide] | 80 to 100 | 80 to 100 |  |  |
| CCN(C(=O)CCN1CCCC1=O)c1cn(-c2cccnc2)nc1Cl [Compound F39, N-(3-Chloro-1-(pyridin-3-yl)-1H-pyrazol-4-yl)-N-ethyl-3-(2-oxopyrrolidin-1-yl)propanamide] | 80 to 100 | 80 to 100 |  |  |
| CCN(C(=O)C1CN(C(=O)CCC#N)C1)c1cn(-c2cccnc2)nc1Cl [FA16, N-(3-Chloro-1-(pyridin-3-yl)-1H-pyrazol-4-yl)-1-(3-cyanopropanoyl)-N-ethylazetidine-3-carboxamide] | 0 to 80 | 0 to 80 |  |  |
| CCN(C(=O)CC/C(=N/OCC(F)(F)F)c1cccs1)c1cn(-c2cccnc2)nc1Cl [FA35, (E/Z)-N-(3-Chloro-1-(pyridin-3-yl)-1H-pyrazol-4-yl)-N-ethyl-4-(thiophen-2-yl)-4-((2,2,2-trifluoroethoxy)imino)butanamide] | 0 to 80 | 80 to 100 |  |  |
| CN(C(=O)CN1CCOC1=O)c1cn(-c2cccnc2)nc1Cl [Compound F111, N-(3-Chloro-1-(pyridin-3-yl)-1H-pyrazol-4-yl)-N-methyl-2-(2-oxooxazolidin-3-yl)acetamide] | 80 to 100 | 80 to 100 |  |  |
| CCN(C(=O)CNC(=O)C1(C)CC1(F)F)c1cn(-c2cccnc2)nc1Cl (stereo not shown) [Compound F1, N-(2-((3-Chloro-1-(pyridin-3-yl)-1H-pyrazol-4-yl)(ethyl)amino)-2-oxoethyl)-2,2-difluoro-1-methylcyclopropanecarboxamide] | 80 to 100 | 80 to 100 |  |  |
| CCSC(=O)N(C)CCC(=O)N(CC)c1cn(-c2cccnc2)nc1Cl [Compound F40, S-Ethyl (3-((3-chloro-1-(pyridin-3yl)-1H-pyrazol-4-yl)(ethyl)amino)-3-oxopropyl)(methyl) carbamothioate] | 0 to 80 | 0 to 80 |  |  |
| CN(C(=O)CCC(=O)N1CCCC1)c1cn(-c2cccnc2)nc1Cl [Compound F37, N-(3-Chloro-1-(pyridin-3-yl)-1H-pyrazol-4-yl)-N-methyl-4-oxo-4-(pyrrolidin-1-yl)butanamide] | 0 to 80 | 80 to 100 |  |  |
| CCN(C(=O)CN(C)C(=O)c1ccccc1)c1cn(-c2cccnc2)nc1Cl [Compound F83, N-(2-((3-chloro-1-(pyridin-3-yl)-1H-pyrazol-4-yl)(ethyl)amino)-2-oxoethyl)-N-methylbenzamide] | 80 to 100 | 0 to 80 |  |  |
| CCN(C(=O)CCC(=O)NCc1cccc(Cl)c1)c1cn(-c2cccnc2)nc1Cl [Compound F68, N1-(3-Chloro-1-(pyridin-3-yl)-1H-pyrazol-4-yl)-N4-(3-chlorobenzyl)-N1-ethylsuccinamide] | 0 to 80 | 80 to 100 |  |  |
| CCN(C(=O)C(C)(C)OC(C)=O)c1cn(-c2cccnc2)nc1Cl [FA73, 1-((3-Chloro-1-(pyridin-3-yl)-1H-pyrazol-4-yl)(ethyl)amino)-2-methyl-1-oxopropan-2-ylacetate] | 80 to 100 | 0 to 80 |  |  |
| CCN(C(=O)CN1CCSC1=O)c1cn(-c2cccnc2)nc1Cl [Compound F10, N-(3-Chloro-1-(pyridin-3-yl)-1H-pyrazol-4-yl)-N-ethyl-2-(2-oxothiazolidin-3-yl)acetamide] | 0 to 80 | 80 to 100 |  |  |
| CON=C(C)CCC(=O)N(C)c1cn(-c2cccnc2)nc1Cl (mixture of isomers) [Compound F60, (E/Z)-N-(3-Chloro-1-(pyridin-3-yl)-1H-pyrazol-4-yl)-4-(methoxyimino)-N-methylpentanamide] | 80 to 100 | 80 to 100 |  |  |
